# Measured values published in ChEMBL document CHEMBL4393680, “Design, synthesis and biological evaluation of novel thioquinazolinone-based 2-aminobenzamide derivatives as potent histone deacetylase (HDAC) inhibitors” (Eur J Med Chem, 2019).
# What was measured:
# SMMC-7721 [1] = assay: Cell cycle arrest in human SMMC7721 cells assessed as accumulation at G2/M phase at 4 uM incubated for 48 hrs by propidium iodide staining based flow cytometry (Rvb=16.17%); type: functional
# SMMC-7721 [2] = assay: Induction of apoptosis in human SMMC7721 cells assessed as necrotic cells at 4 uM incubated for 48 hrs by Annexin-V-FITC/propidium iodide staining based flow cytometry (Rvb=1.88%); type: functional
# SMMC-7721 [3] = assay: Induction of apoptosis in human SMMC7721 cells assessed as viable cells at 4 uM incubated for 48 hrs by Annexin-V-FITC/propidium iodide staining based flow cytometry (Rvb=93.5%); type: functional; conditions: SMMC-7721, 48 h, read-out: Activity
# HeLa [4] = assay: Antiproliferative activity against human HeLa cells assessed as reduction in cell growth at 2 uM incubated for 72 hrs by CCK-8 assay relative to control; type: functional
# SMMC-7721 [5] = assay: Induction of apoptosis in human SMMC7721 cells assessed as necrotic cells at 0.25 uM incubated for 48 hrs by Annexin-V-FITC/propidium iodide staining based flow cytometry (Rvb=1.88%); type: functional
# A-375 [6] = assay: Antiproliferative activity against human A375 cells assessed as reduction in cell growth at 2 uM incubated for 72 hrs by CCK-8 assay relative to control; type: functional; conditions: A-375, 72 h
# SMMC-7721 [7] = assay: Induction of apoptosis in human SMMC7721 cells assessed as late apoptotic cells at 4 uM incubated for 48 hrs by Annexin-V-FITC/propidium iodide staining based flow cytometry (Rvb=1.73%); type: functional
# SMMC-7721 [8] = assay: Induction of apoptosis in human SMMC7721 cells assessed as viable cells at 0.25 uM incubated for 48 hrs by Annexin-V-FITC/propidium iodide staining based flow cytometry (Rvb=93.5%); type: functional; conditions: SMMC-7721, 48 h, read-out: Activity
# SMMC-7721 [9] = assay: Cell cycle arrest in human SMMC7721 cells assessed as accumulation at S phase at 0.25 uM incubated for 48 hrs by propidium iodide staining based flow cytometry (Rvb=6.83%); type: functional
# SMMC-7721 [10] = assay: Cell cycle arrest in human SMMC7721 cells assessed as accumulation at G0/G1 phase at 0.25 uM incubated for 48 hrs by propidium iodide staining based flow cytometry (Rvb=77%); type: functional
# SMMC-7721 [11] = assay: Induction of apoptosis in human SMMC7721 cells assessed as early apoptotic cells at 1 uM incubated for 48 hrs by Annexin-V-FITC/propidium iodide staining based flow cytometry (Rvb=2.88%); type: functional
# SMMC-7721 [12] = assay: Cell cycle arrest in human SMMC7721 cells assessed as accumulation at G2/M phase at 0.25 uM incubated for 48 hrs by propidium iodide staining based flow cytometry (Rvb=16.17%); type: functional
# SMMC-7721 [13] = assay: Induction of apoptosis in human SMMC7721 cells assessed as early apoptotic cells at 4 uM incubated for 48 hrs by Annexin-V-FITC/propidium iodide staining based flow cytometry (Rvb=2.88%); type: functional
# SMMC-7721 [14] = assay: Cell cycle arrest in human SMMC7721 cells assessed as accumulation at G0/G1 phase at 1 uM incubated for 48 hrs by propidium iodide staining based flow cytometry (Rvb=77%); type: functional
# SMMC-7721 [15] = assay: Cell cycle arrest in human SMMC7721 cells assessed as accumulation at G2/M phase at 1 uM incubated for 48 hrs by propidium iodide staining based flow cytometry (Rvb=16.17%); type: functional
# A549 [16] = assay: Antiproliferative activity against human A549 cells assessed as reduction in cell growth at 8 uM incubated for 72 hrs by CCK-8 assay relative to control; type: functional; conditions: A549, 72 h
# SMMC-7721 [17] = assay: Induction of apoptosis in human SMMC7721 cells assessed as late apoptotic cells at 0.25 uM incubated for 48 hrs by Annexin-V-FITC/propidium iodide staining based flow cytometry (Rvb=1.73%); type: functional
# SMMC-7721 [18] = assay: Antiproliferative activity against human SMMC7721 cells assessed as reduction in cell growth at 2 uM incubated for 72 hrs by CCK-8 assay relative to control; type: functional; conditions: SMMC-7721, 72 h
# SMMC-7721 [19] = assay: Induction of apoptosis in human SMMC7721 cells assessed as early apoptotic cells at 0.25 uM incubated for 48 hrs by Annexin-V-FITC/propidium iodide staining based flow cytometry (Rvb=2.88%); type: functional
# NIH3T3 = assay: Cytotoxicity against mouse NIH/3T3 cells assessed as reduction in cell viability after 48 hrs by CCK8 assay; type: cell-based; conditions: NIH3T3, 48 h
# SMMC-7721 [20] = assay: Cell cycle arrest in human SMMC7721 cells assessed as accumulation at G0/G1 phase at 4 uM incubated for 48 hrs by propidium iodide staining based flow cytometry (Rvb=77%); type: functional
# HCT-116 [21] = assay: Antiproliferative activity against human HCT116 cells assessed as reduction in cell growth at 8 uM incubated for 72 hrs by CCK-8 assay relative to control; type: functional; conditions: HCT-116, 72 h
# SMMC-7721 [22] = assay: Antiproliferative activity against human SMMC7721 cells assessed as reduction in cell growth at 8 uM incubated for 72 hrs by CCK-8 assay relative to control; type: functional; conditions: SMMC-7721, 72 h
# SMMC-7721 [23] = assay: Induction of apoptosis in human SMMC7721 cells assessed as late apoptotic cells at 1 uM incubated for 48 hrs by Annexin-V-FITC/propidium iodide staining based flow cytometry (Rvb=1.73%); type: functional
# SMMC-7721 [24] = assay: Induction of apoptosis in human SMMC7721 cells assessed as viable cells at 1 uM incubated for 48 hrs by Annexin-V-FITC/propidium iodide staining based flow cytometry (Rvb=93.5%); type: functional; conditions: SMMC-7721, 48 h, read-out: Activity
# SMMC-7721 [25] = assay: Induction of apoptosis in human SMMC7721 cells assessed as necrotic cells at 1 uM incubated for 48 hrs by Annexin-V-FITC/propidium iodide staining based flow cytometry (Rvb=1.88%); type: functional
# A-375 [26] = assay: Antiproliferative activity against human A375 cells assessed as reduction in cell growth at 8 uM incubated for 72 hrs by CCK-8 assay relative to control; type: functional; conditions: A-375, 72 h
# A549 [27] = assay: Antiproliferative activity against human A549 cells assessed as reduction in cell growth at 2 uM incubated for 72 hrs by CCK-8 assay relative to control; type: functional; conditions: A549, 72 h
# HCT-116 [28] = assay: Antiproliferative activity against human HCT116 cells assessed as reduction in cell growth at 2 uM incubated for 72 hrs by CCK-8 assay relative to control; type: functional; conditions: HCT-116, 72 h
# A549 [29] = assay: Antitumor activity against human A549 cells xenografted in BALB/C mouse assessed as tumor growth inhibition at 25 mg/kg, ip bid for 21 days measured at 3 days interval during compound dosing relative to control; type: functional; conditions: read-out: TGI
# SMMC-7721 [30] = assay: Cell cycle arrest in human SMMC7721 cells assessed as accumulation at S phase at 1 uM incubated for 48 hrs by propidium iodide staining based flow cytometry (Rvb=6.83%); type: functional
# HeLa [31] = assay: Antiproliferative activity against human HeLa cells assessed as reduction in cell growth at 8 uM incubated for 72 hrs by CCK-8 assay relative to control; type: functional
# HeLa [32] = assay: Antiproliferative activity against human HeLa cells assessed as reduction in cell growth incubated for 72 hrs by CCK-8 assay; type: functional, cell-based
# SMMC-7721 [33] = assay: Cell cycle arrest in human SMMC7721 cells assessed as accumulation at S phase at 4 uM incubated for 48 hrs by propidium iodide staining based flow cytometry (Rvb=6.83%); type: functional
# SMMC-7721 [34] = assay: Antiproliferative activity against human SMMC7721 cells assessed as reduction in cell growth incubated for 72 hrs by CCK-8 assay; type: functional, cell-based; conditions: SMMC-7721, 72 h
# Histone deacetylase 2 = Histone deacetylase 2 (Homo sapiens, UniProt Q92769); assay: Inhibition of human recombinant His-tagged HDAC2 ([…]) expressed in baculovirus infected insect cells using FLUOR DE LYS Green as substrate preincubated for 10 mins followed by substrate addition and measured after 30 mins by fluorescence method
# A-375 [35] = assay: Antiproliferative activity against human A375 cells assessed as reduction in cell growth incubated for 72 hrs by CCK-8 assay; type: functional, cell-based; conditions: A-375, 72 h
# Sequence of Histone deacetylase 2 (Q92769 whole entry): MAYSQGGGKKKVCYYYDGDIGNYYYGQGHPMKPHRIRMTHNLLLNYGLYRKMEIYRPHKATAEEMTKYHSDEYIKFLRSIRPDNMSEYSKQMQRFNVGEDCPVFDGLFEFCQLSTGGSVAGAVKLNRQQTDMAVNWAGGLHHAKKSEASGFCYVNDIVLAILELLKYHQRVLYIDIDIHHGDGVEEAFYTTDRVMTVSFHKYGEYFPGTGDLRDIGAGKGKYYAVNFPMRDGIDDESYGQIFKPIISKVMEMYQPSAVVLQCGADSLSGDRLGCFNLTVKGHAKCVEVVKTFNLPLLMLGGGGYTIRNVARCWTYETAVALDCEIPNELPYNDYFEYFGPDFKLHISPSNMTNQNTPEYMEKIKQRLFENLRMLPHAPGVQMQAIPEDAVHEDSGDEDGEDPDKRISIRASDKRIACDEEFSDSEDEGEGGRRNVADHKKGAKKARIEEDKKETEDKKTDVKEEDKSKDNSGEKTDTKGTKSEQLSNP
SMILES,Activity (SMMC-7721 [1]) [%],Activity (SMMC-7721 [2]) [%],viability at 4 µM (SMMC-7721 [3]) [%],inhibition at 2 µM (HeLa [4]) [%],Activity (SMMC-7721 [5]) [%],inhibition at 2 µM (A-375 [6]) [%],Activity (SMMC-7721 [7]) [%],viability at 0.25 µM (SMMC-7721 [8]) [%],Activity (SMMC-7721 [9]) [%],Activity (SMMC-7721 [10]) [%],Activity (SMMC-7721 [11]) [%],Activity (SMMC-7721 [12]) [%],Activity (SMMC-7721 [13]) [%],Activity (SMMC-7721 [14]) [%],Activity (SMMC-7721 [15]) [%],inhibition at 8 µM (A549 [16]) [%],Activity (SMMC-7721 [17]) [%],inhibition at 2 µM (SMMC-7721 [18]) [%],Activity (SMMC-7721 [19]) [%],IC50 (NIH3T3) [µM],further results
CC(=O)Nc1ccc(C(=O)Nc2ccccc2N)cc1 [TACEDINALINE],18.21,4.85,65.7,13.4,1.55,13.4,19.3,88.4,15.37,76.9,4.99,7.73,10.2,75.86,6.73,29.1,5.37,23.5,4.7,9.05,Activity (SMMC-7721 [20]): 70.12%; inhibition at 8 µM (HCT-116 [21]): 44%; inhibition at 8 µM (SMMC-7721 [22]): 29.1%; Activity (SMMC-7721 [23]): 6.72%; viability at 1 µM (SMMC-7721 [24]): 86.5%; Activity (SMMC-7721 [25]): 1.74%; inhibition at 8 µM (A-375 [26]): 33.5%; inhibition at 2 µM (A549 [27]): 23.5%; inhibition at 2 µM (HCT-116 [28]): 13%; inhibition in vivo at 25 mg/kg (A549 [29]): 46.8%; Activity (SMMC-7721 [30]): 17.41%; inhibition at 8 µM (HeLa [31]): 32.4%; IC50 (HeLa [32]): 18.8 µM; Activity (SMMC-7721 [33]): 11.67%; IC50 (SMMC-7721 [34]): > 32 µM
Nc1ccc(F)cc1NC(=O)c1ccc(CNC(=O)/C=C/c2cccnc2)cc1,9.69,4.08,61.6,13.4,1.77,27.6,19.1,88.6,13.28,77.96,5.09,8.76,15.2,76.44,10.4,25.5,3.88,42.1,5.74,2.37,IC50 (Histone deacetylase 2): 0.31 µM; Activity (SMMC-7721 [20]): 76.78%; IC50 (A-375 [35]): 4.21 µM; inhibition at 8 µM (HCT-116 [21]): 87.4%; inhibition at 8 µM (SMMC-7721 [22]): 58.9%; Activity (SMMC-7721 [23]): 7.88%; viability at 1 µM (SMMC-7721 [24]): 84.7%; Activity (SMMC-7721 [25]): 2.34%; inhibition at 8 µM (A-375 [26]): 63.6%; inhibition at 2 µM (A549 [27]): 8%; inhibition at 2 µM (HCT-116 [28]): 61.1%; Activity (SMMC-7721 [30]): 13.16%; inhibition at 8 µM (HeLa [31]): 52%; IC50 (HeLa [32]): 12.6 µM; Activity (SMMC-7721 [33]): 13.53%; IC50 (SMMC-7721 [34]): > 26 µM
